This assay concerns A375 human melanoma xenografts. The assay can be described thus: In vivo therapeutic efficacy in A375 human melanoma xenografts (tumor volume, T/C, TGI), Example 14. Also noted: species or system human tumor in female BALB/c nude mice. Particulars: for Tumor volume: 100 mg/kg p.o. QD x 21 days. As for the experimental part: Agents were tested in the A375 human melanoma xenografts. Compound 26 and Compound 141 were administered to BALB/c nude mice bearing A375 tumors from PG-DO and dosed via PO twice a day (BID) or third a day (TIP) or dosed P daily (QD) from PG-D. Dabrafenib was administered to BALB/c nude mice bearing A375 tumors from PG-D1 and dosed via P daily (QD). Compound 26 was dosed at 1.5 mg/kg (QD), 2 mg/kg (TID), 3 mg/kg (BID), 6 mg/kg (QD) and 10 mg/kg (BID) for 21 days. Compound 141 was dosed at 0.75 mg/kg (BID), 1 mg/kg (TID), 1.5 mg/kg (BID), 3 mg/kg (QD) and 5 mg/kg (BID) for 21 days. Dabrafenib was dosed at 100 mg/kg for 21 days. This study was non-GLP.
One hundred and thirty-eight female BALB/c nude Mus Musculus mice procured from Shanghai Lingchang Biological Science and Technology Co., LTD between the ages of six to eight weeks and with body weight between eighteen and twenty-two grams were used for the study. A spare mouse was also procured.
The A375 tumor cells were maintained in vitro in DMEM medium supplemented with 10% fetal bovine serum and 1% Penicillin-Streptomycin at 37° C. in an atmosphere of 5% CO2 in air. The tumor cells were routinely sub-cultured twice weekly. The cells growing in an exponential growth phase were harvested and counted for tumor inoculation.
Each mouse was inoculated subcutaneously at the right flank with A375 cells (5×10^6) in 0.2 mL of PBS supplemented with Matrigel (PBS: Matrigel=1:1) for tumor development. Animals were grouped for efficacy study on day 15 after tumor inoculation when the average tumor volume reached 220 mm^3. The test articles administration and the animal numbers in each group are shown in the above experimental Table 75.
At the time of routine monitoring, the animals were checked daily for any effects of tumor growth and treatments on normal behavior such as mobility, food and water consumption (by looking only), body weight gain/loss (body weights were measured twice weekly), eye/hair matting and any other abnormal effect as stated in the protocol. Death and observed clinical signs were recorded on the basis of the numbers of animals within each subset.
Prior to the onset of drug treatment, mice were measured for tumor size in two dimensions using a caliper, and the tumor volume (mm^3) was calculated using formula V=0.5 a×b^2 where a and b are the long and short diameters of the tumor in mm, respectively. Mice were randomized into different treatment groups based on the tumor volume.
The major endpoint was to see if the tumor growth could be delayed or mice could be cured. The tumor size was then used for calculations of T/C value. The T/C value (in percent) is an indication of antitumor effectiveness; T and C are the mean volumes of the treated and control groups, respectively on specified day.
TGI was calculated for each group using the formula: TGI (%)=[1−(Ti−T0)/(Ci−C0)]×100; Ti is the average tumor volume of a treatment group on a given day, T0 is the average tumor volume of the treatment group on the day of treatment start, Ci is the average tumor volume of the vehicle control group on the same day with Ti, and C0 is the average tumor volume of the vehicle group on the day of treatment start.
A one-way ANOVA followed by Dunnett's multiple comparison test was performed to compare tumor volume among vehicle group (Group 1) and treatment groups (Group 2-Group 12). All data were analyzed using GraphPad Prism, ns indicates p>0.05, * indicates p<0.05, ** indicates p<0.01, *** indicates p<0.001 and **** indicates p<0.0001.
Tumor growth inhibition of Compound 26, Compound 141 and dabrafenib in the treatment of female BALB/c nude mice bearing A375 xenografts was calculated based on tumor volume measured on […]. TGI and T/C were calculated respectively and the data are detailed in Table 82.
A general note: A xenograft is tissue or cells of one species grown in another, often human tumour cells in immunodeficient mice.

The mark [1] stands for this setting: 100 mg/kg, p.o., QD × 21 days, PG-D21.

In general, T/C refers to the ratio of treated to control. Usually TGI stands for the reduction of tumour growth relative to the control group. A low value points to little slowing of growth. `CC(C)(C)c1nc(-c2cccc(NS(=O)(=O)c3c(F)cccc3F)c2F)c(-c2ccnc(N)n2)s1` [Dabrafenib, dabrafenib, reference compound]: the Tumor volume was 220 ± 15 mm^3 (day 0, mean ± SEM); 367 ± 24 mm^3 (day 4, mean ± SEM); 421 ± 28 mm^3 (day 7, mean ± SEM); 560 ± 38 mm^3 (day 11, mean ± SEM); 756 ± 54 mm^3 (day 14, mean ± SEM); 1031 ± 79 mm^3 (day 18, mean ± SEM). For the same molecule, the Tumor volume is, setting by setting: (day 21, mean ± SEM) 1095 ± 86 mm^3; (day 25 (dosing-free regrowth), mean ± SEM) 1007 ± 137 mm^3; (day 28 (dosing-free regrowth), mean ± SEM) 1366 ± 209 mm^3; (day 32 (dosing-free regrowth), mean ± SEM) 1679 ± 323 mm^3; (day 35 (dosing-free regrowth), mean ± SEM) 1711 ± 245 mm^3; (day 39 (dosing-free regrowth), mean ± SEM) 2116 ± 279 mm^3. This molecule yielded a Tumor volume (day 42 (dosing-free regrowth), mean ± SEM) of 2634 ± 337 mm^3; a Tumor volume (day 46 (dosing-free regrowth), mean ± SEM) of 2535 ± 321 mm^3; a Tumor volume (day 49 (dosing-free regrowth), mean ± SEM) of 3163 ± 478 mm^3; a Tumor volume (day 53 (dosing-free regrowth)) of 3001 mm^3. Further, under “100 mg/kg p.o. QD × 21 days”, the “Tumor Size on PG-D21 (Mean ± SEM)” value is given as 1095 ± 86 mm^3. Moreover, under setting [1], the T/C came to 58.1%. Moreover, the inhibition of tumour growth (TGI) under setting [1] stood at 47.4%.

Source of the values: patent US20260297060A1, “COMPOUNDS FOR THE DEGRADATION OF MUTANT BRAF” (C4 THERAPEUTICS, INC., priority 2023, published 2026).
